Results on 8 compounds are retold here after patent US11111214B2 (priority 2013, dated 2021).

As a reminder, the IC50 is the concentration that inhibits the measured activity by half. One may read the Ki as the equilibrium dissociation constant of an inhibitor or competing ligand from its target. Usually EC50 stands for the concentration that produces a half-maximal response. Lower therefore signals a more potent agent.

Experiment [1] deals with T1, recombinant human kappa (KOR) opioid receptor (Homo sapiens, UniProt P41145).
T1 construct: expressed in transfected cells; host or cells: CHO-K1 cell membranes
Description: biochemical. The class given is binding.

Experiment [2] deals with T2, recombinant human mu (MOR) opioid receptor (Homo sapiens, UniProt P35372).
T2 construct: expressed in transfected cells; host or cells: CHO-K1 cell membranes
Description: biochemical. The class given is binding. To be noted: for inhibition at 10 µM: read-out: Mu receptor % inhibition at single concentration, % inhibition @ 10 μM.

For experiment [3], the target named is T3, KOR (kappa opioid receptor) (Homo sapiens, UniProt P41145).
T3 construct: expressed in transfected cells; host or cells: CHO-K1 cells stably expressing KOR
Description: cell-based.

T2 sequence (P35372 whole entry): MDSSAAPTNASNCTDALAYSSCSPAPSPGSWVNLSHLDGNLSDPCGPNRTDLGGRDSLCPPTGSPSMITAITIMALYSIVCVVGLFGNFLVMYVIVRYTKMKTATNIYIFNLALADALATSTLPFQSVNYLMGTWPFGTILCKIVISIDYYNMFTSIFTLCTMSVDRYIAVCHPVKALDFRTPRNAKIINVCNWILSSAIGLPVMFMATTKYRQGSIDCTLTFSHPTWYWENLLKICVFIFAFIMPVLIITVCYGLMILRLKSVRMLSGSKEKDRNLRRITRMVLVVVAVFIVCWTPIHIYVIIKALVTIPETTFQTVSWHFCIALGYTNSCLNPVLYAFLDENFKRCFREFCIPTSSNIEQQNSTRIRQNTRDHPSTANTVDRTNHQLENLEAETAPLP
T3 sequence (P41145 whole entry): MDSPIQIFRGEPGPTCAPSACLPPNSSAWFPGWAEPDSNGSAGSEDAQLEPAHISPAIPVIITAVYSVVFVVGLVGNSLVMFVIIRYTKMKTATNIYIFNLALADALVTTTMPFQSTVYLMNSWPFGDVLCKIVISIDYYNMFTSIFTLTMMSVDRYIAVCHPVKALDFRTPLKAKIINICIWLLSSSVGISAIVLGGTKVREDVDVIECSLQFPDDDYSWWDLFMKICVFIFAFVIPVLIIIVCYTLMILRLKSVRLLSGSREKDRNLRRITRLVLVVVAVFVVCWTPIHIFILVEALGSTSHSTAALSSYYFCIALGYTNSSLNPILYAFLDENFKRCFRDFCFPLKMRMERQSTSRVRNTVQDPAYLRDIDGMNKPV
T1 sequence (P41145 whole entry): as above

As to `COCCOCCOCCOCCOCCO[C@H]1CCN(C[C@H](c2ccccc2)N(C)C(=O)Cc2ccc(Cl)c(Cl)c2)C1` [compound 7, 2-(3,4-Dichlorophenyl)-N-methyl-N-{(1S)-2-[(3S)-3-(2,5,8,11,14-pentaoxahexadecan-16-yloxy)pyrrolidin-1-yl]-1-phenylethyl}acetamide], in experiment [1], the concentration for half-maximal inhibition (IC50) amounted to 298 nM and the inhibition constant Ki is 68.8 nM. For the same compound, in experiment [2], the IC50 stood at 15600 nM and the inhibition at 10 µM came out at 68.6%. Also, the EC50 in experiment [3] stood at 9 nM.
Regarding `COCCOCCOCCOCCOCCO[C@H]1CCN(C[C@H](c2ccccc2)N(C)C(=O)CNc2ccccc2)C1` [compound 8, N-Methyl-N-{(1S)-2-[(3S)-3-(2,5,8,11,14-pentaoxahexadecan-16-yloxy)pyrrolidin-1-yl]-1-phenylethyl}-N^2-phenylglycinamide], in experiment [1], the IC50 was 1480 nM and the inhibition constant Ki came to 342 nM. Moreover, the inhibition at 10 µM in experiment [2] came to 47.5%. For the same compound, the response in experiment [3] was half-maximal at 74.7 nM (EC50).
Regarding `COCCOCCOCCOCCOCCO[C@H]1CCN(C[C@H](c2ccccc2)N(C)C(=O)C(c2ccccc2)c2ccccc2)C1` [compound 9, N-Methyl-N-{(1S)-2-[(3S)-3-(2,5,8,11,14-pentaoxahexadecan-16-yloxy)pyrrolidin-1-yl]-1-phenylethyl}-2,2-diphenylacetamide], in experiment [1], the IC50 came to 8970 nM and the Ki was found to be 2070 nM. Besides, the inhibition at 10 µM in experiment [2] worked out at 36.9%. This compound had an EC50 in experiment [3] of 178 nM.
For `COCCOCC(=O)Nc1cccc([C@@H](CN2CC[C@H](O)C2)N(C)C(=O)C(c2ccccc2)c2ccccc2)c1` [compound 11, N-[(1S)-2-[(3S)-3-Hydroxypyrrolidin-1-yl]-1-(3-{[(2-methoxyethoxy)acetyl]amino}phenyl)ethyl]-N-methyl-2,2-diphenylacetamide], in experiment [1], the half-inhibitory concentration (IC50) is 58.1 nM and the Ki was 13.4 nM. In experiment [2], the inhibition at 10 µM came out at 45.2%. Further, in experiment [3], a half-maximal response (EC50) required 5.02 nM.
`COCCOCCOCCOCCOCCOCC(=O)Nc1cccc([C@@H](CN2CCCC2)N(C)C(=O)C(c2ccccc2)c2ccccc2)c1` [compound 12, N-{3-[(1S)-1-[(Diphenylacetyl)(methyl)amino]-2-(pyrrolidin-1-yl)ethyl]phenyl}-2,5,8,11,14,17-hexaoxanonadecan-19-amide]: in experiment [1], the IC50 was 849 nM and the inhibitory constant (Ki) is 196 nM. Further, in experiment [2], the IC50 came to 53300 nM and the inhibition at 10 µM came out at 46.5%. The EC50 in experiment [3] was determined as 36.1 nM.
As to `COCCOCCOCCOCCOCCOc1ccc(CC(=O)N(C)[C@H](CN2CCCC2)c2ccccc2)cc1` [compound 13, N-Methyl-2-[4-(2,5,8, 11, 14-pentaoxahexadecan-16-yloxy)phenyl]-N-[(1S)-1-phenyl-2-(pyrrolidin-1-yl)ethyl]acetamide], in experiment [1], the IC50 turned out to be 1320 nM and the Ki came out at 305 nM. The inhibition at 10 µM in experiment [2] was found to be 69.9%.
In the case of `COCCOCCOCCO[C@H]1CCN(C[C@H](c2ccc(C(F)(F)F)cc2)N(C)C(=O)Cc2ccc(Cl)c(Cl)c2)C1` [compound 33, 2-(3,4-Dichlorophenyl)-N-{(1S)-2-[(3S)-3-{2-[2-(2-methoxyethoxy)ethoxy]ethoxy}pyrrolidin-1-yl]-1-[4-(trifluoromethyl)phenyl]ethyl}-N-methylacetamide], in experiment [1], the IC50 stood at 1240 nM and the inhibitory constant (Ki) was 285 nM. In experiment [2], the inhibition at 10 µM was found to be 84.1%.
The corresponding values for `COCCOCCOCCOCCOCCO[C@H]1CCN(C[C@H](c2ccccc2)N(C)C(=O)Cc2ccccc2[N+](=O)[O-])C1` [compound 41, N—((S)-2-((S)-3-(2,5,8,11,14-pentaoxahexadecan-16-yloxy)pyrrolidin-1-yl)-1-phenylethyl)-N-methyl-2-(2-nitrophenyl)acetamide] are 5200 nM, 1200 nM and 20.5%.
